The results in this text go back to paper doi:10.1101/2020.11.06.371534v1 (biorxiv, 2020).

Assay [1] has as its target T1, Porcine pancreatic elastase (PE) (Sus scrofa, UniProt P00772). The experiment in a line: microscale thermophoresis, NT-647-NHS labelled enzyme. The assay is classed as binding. (In general: In MST a laser heats a spot of the sample, and binding alters the fluorescence response.)
Assay [2] addresses T1, Porcine pancreatic elastase (PE). Nature of the assay: chromogenic assay, OD […] nm, non-linear regression. The assay is classed as biochemical.
The target is the same in assay [3]. The experiment in a line: chromogenic assay, OD […] nm. The assay is classed as biochemical.

SMILES strings stand for the structures. Where a name gives a salt, the structure may show the parent alone.

T1 sequence (P00772 27-266): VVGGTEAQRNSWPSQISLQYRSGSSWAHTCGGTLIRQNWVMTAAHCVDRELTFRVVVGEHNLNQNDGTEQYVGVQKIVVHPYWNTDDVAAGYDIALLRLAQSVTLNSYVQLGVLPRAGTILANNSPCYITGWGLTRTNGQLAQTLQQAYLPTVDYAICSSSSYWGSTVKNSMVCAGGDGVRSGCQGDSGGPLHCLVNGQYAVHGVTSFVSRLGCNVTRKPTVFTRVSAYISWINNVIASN

As for `O=c1cc(-c2ccccc2)oc2cc(O)c(O)c(O)c12` [Baicalein, 5,6,7-trihydroxy-2-phenylchromen-4-one], the affinity in assay [1], expressed as Kd, was 0.0262 µM. The half-inhibitory concentration (IC50) (in general, the concentration that inhibits the measured activity by half) in assay [2] turned out to be 3.53 µM. Consider `O=c1c(O)c(-c2ccccc2)oc2cc(O)cc(O)c12` [Galangin, 3,5,7-trihydroxy-2-phenylchromen-4-one], for which, in assay [3] (read-out: % inhibition at 100 μM), the inhibition – broadly, the percentage by which the read-out fell short of the control – at 100 µM was 23.6%.

With `COc1ccc([C@@H]2CC(=O)c3c(O)cc(O)cc3O2)cc1O` [Hesperetin, (2S)-5,7-dihydroxy-2-(3-hydroxy-4-methoxyphenyl)-2,3-dihydrochromen-4-one], the inhibition at 125 µM in assay [3] (read-out: % inhibition at 125 μM) came to 31.5%.

Molecule `CC(C)(C)C(=O)Oc1ccc(S(=O)(=O)Nc2ccccc2C(=O)NCC(=O)O)cc1` [Sivelestat sodium salt hydrate, sodium;2-[[2-[[4-(2,2-dimethylpropanoyloxy)phenyl]sulfonylamino]benzoyl]amino]acetate] yielded an IC50 in assay [2] of 15.8 µM.
